# Reference: US20090137664A1, “SAURURUS CERNUUS COMPOUNDS THAT INHIBIT CELLULAR RESPONSES TO HYPOXIA” (priority 2003, published 2009)
# pIC50: −log10 of the molar value.
# Tests used:
# MDA-MB-435 = assay: NCI in vitro cell line screen (SRB), Breast Cancer MDA-MB-435; format: cell-based
# Description: (§1) For exemplary purposes, an embodiment of the present invention was tested for activity with respect to certain cancer cell lines. The following Tables show results from in vitro 60-cell line antitumor testing from the US National Cancer Institute Developmental Therapeutics Program (NCI-DTP) on compound 2. The testing was in connection with the NCI's In Vitro Cell Line Screening Project (IVCLSP). Detailed information regarding the experiments and their interpretation is available from the NCI.
# MOLT-4 = assay: NCI in vitro cell line screen (SRB), Leukemia MOLT-4; format: cell-based
# Description: as §1
# OVCAR-5 = assay: NCI in vitro cell line screen (SRB), Ovarian Cancer OVCAR-5; format: cell-based
# Description: as §1
# M14 = assay: NCI in vitro cell line screen (SRB), Melanoma M14; format: cell-based
# Description: as §1
# HCT-116 = assay: NCI in vitro cell line screen (SRB), Colon Cancer HCT-116; format: cell-based
# Description: as §1
# SF-268 = assay: NCI in vitro cell line screen (SRB), CNS Cancer SF-268; format: cell-based
# Description: as §1
# TK-10 = assay: NCI in vitro cell line screen (SRB), Renal Cancer TK-10; format: cell-based
# Description: as §1
# NCI-H522 = assay: NCI in vitro cell line screen (SRB), Non-Small Cell Lung Cancer NCI-H522; format: cell-based
# Description: as §1
# A498 = assay: NCI in vitro cell line screen (SRB), Renal Cancer A498; format: cell-based
# Description: as §1
# NCI-H226 = assay: NCI in vitro cell line screen (SRB), Non-Small Cell Lung Cancer NCI-H226; format: cell-based
# Description: as §1
# HIF-1 = assay: pTK-HRE3-luc reporter assay, hypoxia-induced HIF-1 activation in T47D cells; conditions: Homo sapiens, T47D, read-out: IC50, inhibition of hypoxic activation of HIF-1
# NCI-H460 = assay: NCI in vitro cell line screen (SRB), Non-Small Cell Lung Cancer NCI-H460; format: cell-based
# Description: as §1
# [1] = Homo sapiens, read-out: LC50 (the source's name)
smiles,measurement,setting,value
"COc1ccc([C@@H](O)[C@@H](C)Oc2ccc([C@H]3O[C@H](c4ccc(O[C@H](C)[C@H](O)c5ccc6c(c5)OCO6)c(OC)c4)[C@H](C)[C@H]3C)cc2OC)cc1OC [Compound 2, manassantin B]",TGI,MDA-MB-435,>1.00E−4 Molar
same,GI50,MDA-MB-435; Homo sapiens,1.88 µM
same,CC50,MDA-MB-435; [1],> 100 µM
same,Mean Optical Densities,MDA-MB-435; Log10 Concentration −4.0 Molar,0.534
same,Percent Growth,MDA-MB-435; Log10 Concentration −4.0 Molar,1%
same,Mean Optical Densities,MDA-MB-435; Log10 Concentration −5.0 Molar,0.605
same,Percent Growth,MDA-MB-435; Log10 Concentration −5.0 Molar,10%
same,Mean Optical Densities,MDA-MB-435; Log10 Concentration −6.0 Molar,1.079
same,Percent Growth,MDA-MB-435; Log10 Concentration −6.0 Molar,65%
same,Mean Optical Densities,MDA-MB-435; Log10 Concentration −7.0 Molar,1.179
same,Percent Growth,MDA-MB-435; Log10 Concentration −7.0 Molar,77%
same,Mean Optical Densities,MDA-MB-435; Log10 Concentration −8.0 Molar,1.122
same,Percent Growth,MDA-MB-435; Log10 Concentration −8.0 Molar,70%
same,TGI,MOLT-4,>1.00E−4 Molar
same,GI50,MOLT-4; Homo sapiens,44.7 µM
same,LC50 (concentration killing 50% of cells),MOLT-4; Homo sapiens,> 100 µM
same,Mean Optical Densities,MOLT-4; Log10 Concentration −4.0 Molar,0.416
same,Percent Growth,MOLT-4; Log10 Concentration −4.0 Molar,47%
same,Mean Optical Densities,MOLT-4; Log10 Concentration −5.0 Molar,0.462
same,Percent Growth,MOLT-4; Log10 Concentration −5.0 Molar,55%
same,Mean Optical Densities,MOLT-4; Log10 Concentration −6.0 Molar,0.685
same,Percent Growth,MOLT-4; Log10 Concentration −6.0 Molar,90%
same,Mean Optical Densities,MOLT-4; Log10 Concentration −7.0 Molar,0.646
same,Percent Growth,MOLT-4; Log10 Concentration −7.0 Molar,84%
same,Mean Optical Densities,MOLT-4; Log10 Concentration −8.0 Molar,0.646
same,Percent Growth,MOLT-4; Log10 Concentration −8.0 Molar,84%
same,TGI,OVCAR-5,>1.00E−4 Molar
same,CC50,OVCAR-5; [1],> 100 µM
same,Mean Optical Densities,OVCAR-5; Log10 Concentration −4.0 Molar,0.713
same,Percent Growth,OVCAR-5; Log10 Concentration −4.0 Molar,11%
same,Mean Optical Densities,OVCAR-5; Log10 Concentration −5.0 Molar,0.752
same,Percent Growth,OVCAR-5; Log10 Concentration −5.0 Molar,26%
same,Mean Optical Densities,OVCAR-5; Log10 Concentration −6.0 Molar,0.862
same,Percent Growth,OVCAR-5; Log10 Concentration −6.0 Molar,68%
same,Mean Optical Densities,OVCAR-5; Log10 Concentration −7.0 Molar,0.853
same,Percent Growth,OVCAR-5; Log10 Concentration −7.0 Molar,65%
same,Mean Optical Densities,OVCAR-5; Log10 Concentration −8.0 Molar,0.696
same,Percent Growth,OVCAR-5; Log10 Concentration −8.0 Molar,4%
same,TGI,M14,>1.00E−4 Molar
same,GI50,M14; Homo sapiens,4.19 µM
same,CC50,M14; [1],> 100 µM
same,Mean Optical Densities,M14; Log10 Concentration −4.0 Molar,0.439
same,Percent Growth,M14; Log10 Concentration −4.0 Molar,12%
same,Mean Optical Densities,M14; Log10 Concentration −5.0 Molar,0.521
same,Percent Growth,M14; Log10 Concentration −5.0 Molar,30%
same,Mean Optical Densities,M14; Log10 Concentration −6.0 Molar,0.764
same,Percent Growth,M14; Log10 Concentration −6.0 Molar,83%
same,Mean Optical Densities,M14; Log10 Concentration −7.0 Molar,0.843
same,Percent Growth,M14; Log10 Concentration −7.0 Molar,100%
same,Mean Optical Densities,M14; Log10 Concentration −8.0 Molar,0.809
same,Percent Growth,M14; Log10 Concentration −8.0 Molar,93%
same,TGI,HCT-116,>1.00E−4 Molar
same,GI50,HCT-116; Homo sapiens,2.25 µM
same,CC50,HCT-116; [1],> 100 µM
same,Mean Optical Densities,HCT-116; Log10 Concentration −4.0 Molar,0.329
same,Percent Growth,HCT-116; Log10 Concentration −4.0 Molar,15%
same,Mean Optical Densities,HCT-116; Log10 Concentration −5.0 Molar,0.498
same,Percent Growth,HCT-116; Log10 Concentration −5.0 Molar,32%
same,Mean Optical Densities,HCT-116; Log10 Concentration −6.0 Molar,0.770
same,Percent Growth,HCT-116; Log10 Concentration −6.0 Molar,60%
same,Mean Optical Densities,HCT-116; Log10 Concentration −7.0 Molar,0.867
same,Percent Growth,HCT-116; Log10 Concentration −7.0 Molar,70%
same,Mean Optical Densities,HCT-116; Log10 Concentration −8.0 Molar,0.978
same,Percent Growth,HCT-116; Log10 Concentration −8.0 Molar,81%
same,TGI,SF-268,>1.00E−4 Molar
same,GI50,SF-268; Homo sapiens,4.96 µM
same,CC50,SF-268; [1],> 100 µM
same,Mean Optical Densities,SF-268; Log10 Concentration −4.0 Molar,0.685
same,Percent Growth,SF-268; Log10 Concentration −4.0 Molar,27%
same,Mean Optical Densities,SF-268; Log10 Concentration −5.0 Molar,0.811
same,Percent Growth,SF-268; Log10 Concentration −5.0 Molar,40%
same,Mean Optical Densities,SF-268; Log10 Concentration −6.0 Molar,1.135
same,Percent Growth,SF-268; Log10 Concentration −6.0 Molar,73%
same,Mean Optical Densities,SF-268; Log10 Concentration −7.0 Molar,1.238
same,Percent Growth,SF-268; Log10 Concentration −7.0 Molar,83%
same,Mean Optical Densities,SF-268; Log10 Concentration −8.0 Molar,1.213
same,Percent Growth,SF-268; Log10 Concentration −8.0 Molar,81%
same,TGI,TK-10,>1.00E−4 Molar
same,GI50,TK-10; Homo sapiens,4.15 µM
same,CC50,TK-10; [1],> 100 µM
same,Mean Optical Densities,TK-10; Log10 Concentration −4.0 Molar,1.117
same,Percent Growth,TK-10; Log10 Concentration −4.0 Molar,16%
same,Mean Optical Densities,TK-10; Log10 Concentration −5.0 Molar,1.163
same,Percent Growth,TK-10; Log10 Concentration −5.0 Molar,22%
same,Mean Optical Densities,TK-10; Log10 Concentration −6.0 Molar,1.674
same,Percent Growth,TK-10; Log10 Concentration −6.0 Molar,95%
same,Mean Optical Densities,TK-10; Log10 Concentration −7.0 Molar,1.684
same,Percent Growth,TK-10; Log10 Concentration −7.0 Molar,97%
same,Mean Optical Densities,TK-10; Log10 Concentration −8.0 Molar,1.707
same,Percent Growth,TK-10; Log10 Concentration −8.0 Molar,100%
same,TGI,NCI-H522,>1.00E−4 Molar
same,GI50,NCI-H522; Homo sapiens,3.38 µM
same,CC50,NCI-H522; [1],> 100 µM
same,Mean Optical Densities,NCI-H522; Log10 Concentration −4.0 Molar,0.760
same,Percent Growth,NCI-H522; Log10 Concentration −4.0 Molar,9%
same,Mean Optical Densities,NCI-H522; Log10 Concentration −5.0 Molar,0.919
same,Percent Growth,NCI-H522; Log10 Concentration −5.0 Molar,35%
same,Mean Optical Densities,NCI-H522; Log10 Concentration −6.0 Molar,1.119
same,Percent Growth,NCI-H522; Log10 Concentration −6.0 Molar,67%
same,Mean Optical Densities,NCI-H522; Log10 Concentration −7.0 Molar,1.099
same,Percent Growth,NCI-H522; Log10 Concentration −7.0 Molar,64%
same,Mean Optical Densities,NCI-H522; Log10 Concentration −8.0 Molar,1.087
same,Percent Growth,NCI-H522; Log10 Concentration −8.0 Molar,62%
same,TGI,A498,>1.00E−4 Molar
same,GI50,A498; Homo sapiens,13.2 µM
same,CC50,A498; [1],> 100 µM
same,Mean Optical Densities,A498; Log10 Concentration −4.0 Molar,1.223
same,Percent Growth,A498; Log10 Concentration −4.0 Molar,14%
same,Mean Optical Densities,A498; Log10 Concentration −5.0 Molar,1.343
same,Percent Growth,A498; Log10 Concentration −5.0 Molar,55%
same,Mean Optical Densities,A498; Log10 Concentration −6.0 Molar,1.419
same,Percent Growth,A498; Log10 Concentration −6.0 Molar,80%
same,Mean Optical Densities,A498; Log10 Concentration −7.0 Molar,1.433
same,Percent Growth,A498; Log10 Concentration −7.0 Molar,85%
same,Mean Optical Densities,A498; Log10 Concentration −8.0 Molar,1.414
same,Percent Growth,A498; Log10 Concentration −8.0 Molar,79%
same,TGI,NCI-H226,1.77E−5 Molar
same,GI50,NCI-H226; Homo sapiens,0.483 µM
same,LC50 (concentration killing 50% of cells),NCI-H226; Homo sapiens,> 100 µM
same,Mean Optical Densities,NCI-H226; Log10 Concentration −4.0 Molar,0.559
same,Percent Growth,NCI-H226; Log10 Concentration −4.0 Molar,−16%
same,Mean Optical Densities,NCI-H226; Log10 Concentration −5.0 Molar,0.678
same,Percent Growth,NCI-H226; Log10 Concentration −5.0 Molar,5%
same,Mean Optical Densities,NCI-H226; Log10 Concentration −6.0 Molar,0.765
same,Percent Growth,NCI-H226; Log10 Concentration −6.0 Molar,36%
same,Mean Optical Densities,NCI-H226; Log10 Concentration −7.0 Molar,0.885
same,Percent Growth,NCI-H226; Log10 Concentration −7.0 Molar,79%
same,Mean Optical Densities,NCI-H226; Log10 Concentration −8.0 Molar,0.822
same,Percent Growth,NCI-H226; Log10 Concentration −8.0 Molar,57%
same,pIC50,HIF-1,8.52
same,TGI,NCI-H460,>1.00E−4 Molar
same,GI50,NCI-H460; Homo sapiens,2.12 µM
same,LC50 (concentration killing 50% of starting cells),NCI-H460; Homo sapiens,> 100 µM
same,Mean Optical Densities,NCI-H460; Log10 Concentration −4.0 Molar,0.285
same,Percent Growth,NCI-H460; Log10 Concentration −4.0 Molar,11%
same,Mean Optical Densities,NCI-H460; Log10 Concentration −5.0 Molar,0.492
same,Percent Growth,NCI-H460; Log10 Concentration −5.0 Molar,28%
same,Mean Optical Densities,NCI-H460; Log10 Concentration −6.0 Molar,0.895
same,Percent Growth,NCI-H460; Log10 Concentration −6.0 Molar,61%
same,Mean Optical Densities,NCI-H460; Log10 Concentration −7.0 Molar,1.030
same,Percent Growth,NCI-H460; Log10 Concentration −7.0 Molar,72%
same,Mean Optical Densities,NCI-H460; Log10 Concentration −8.0 Molar,1.011
same,Percent Growth,NCI-H460; Log10 Concentration −8.0 Molar,70%
